In US10765732B2, “Compounds and methods for affecting cytokines” (Zivo Bioscience, Inc., priority 2013, dated 2020):

What was measured:
Format in all cases: cell-based, human
NF-κB = test: Electrophoretic mobility shift assay (EMSA) of NF-κB DNA-binding activity in nuclear protein of cultured PBMC; conditions: TNF-α (50 ng/ml) added alone 1 h before harvesting, untreated control = 1.0
Procedure: (§1) According to this exemplary embodiment, phyto-percolate and the flow-through/F4 were tested as they appeared in their original concentrations right off the columns, only diluted 1:20 and 1:100 as described herein. The culture of peripheral blood mononuclear cells (“PBMC”) is prepared from two vials of frozen PBMCs that were obtained from normal healthy human subjects by a commercial vendor, and were added to 2×10 ml medium and centrifuged. PBMCs were resuspended and cultured in RPMI1640/5% FBS for 24 h. (1 vial of frozen cells in 11 ml medium).
Treatment agents for this exemplary method comprise three agents: unseparated phyto-percolate (‘PAZ’), fraction 3 (‘F3’), fraction 4 (‘F4’). Treatment concentration for each was 1:20 and 1:100. An exemplary sample preparation method for each agent by dilution is as follows: First, a 1:10 dilution is prepared by combining 0.7 ml agent (PAZ, F3, or F4)+6.3 ml RPMI1640/5% FBS to obtain a total volume of 7 ml of a 1:10 solution. […]
Analysis of the effect of phyto-percolate or fractions isolated therefrom on the DNA-binding activity of NF-κB in the nuclear protein fractions of the cultured PBMC was determined as follows in this exemplary embodiment: approximately 18.26 mL of suspended PBMC were added to approximately 18 mL of culture medium and 2 mL of this cell suspension (2,718,000 cells in 2 mL) were seeded into each 60 mm culture dish. […]

IFN-γ = test: ELISA of IFN-γ secretion by cultured PBMC; conditions: PMA (with ionomycin) alone
Procedure: as §1
(§2) Treatment agents for this exemplary method comprise three agents: unseparated phyto-percolate (‘PAZ’), fraction 3 (‘F3’), fraction 4 (‘F4’). Treatment concentration for each was 1:20 and 1:100. […]
(§3) According to this exemplary embodiment, seeding, treatment, and detection are accomplished by the following steps. Two dishes of PBMCs were combined and the small amount of PBMCs was stained with 0.4% Trypan blue and the cell number of PBMCs was counted using known techniques.
(§4) In this embodiment, an enzyme linked immune-sorbent assay (“ELISA”) analysis of inflammatory cytokine secretion, (a protocol provided in a commercial kit for the parallel quantification of the production of human cytokines), was employed. […]

IL-17A = test: ELISA of IL-17A secretion by cultured PBMC; conditions: PMA (with ionomycin) alone
Procedure: as §1, §2, §3, §4

GM-CSF = test: ELISA of GM-CSF secretion by cultured PBMC; conditions: PMA (with ionomycin) alone
Procedure: as §1, §2, §3, §4

IL-2 = test: ELISA of IL-2 secretion by cultured PBMC; conditions: PMA (with ionomycin) alone
Procedure: as §1, §2, §3, §4

TNF-α = test: ELISA of TNF-α secretion by cultured PBMC; conditions: PMA (with ionomycin) alone
Procedure: as §1, §2, §3, §4

Compound	DNA-binding activity of NF-κB (relative level) (NF-κB) [relative unit]	IFN-γ secreted (IFN-γ)	production and secretion of IL-17A (IL-17A)	production and secretion of GM-CSF (GM-CSF)	quantity of IL-2 produced (IL-2)	production and secretion of TNF-α (TNF-α)
TNF-α	~2.0	–	–	–	–	–
CCCCCCCCCCCCCC(=O)O[C@@H]1[C@@H](C)[C@@]2(O)[C@@H](C=C(CO)C[C@]3(O)C(=O)C(C)=C[C@@H]23)[C@@H]2C(C)(C)[C@]12OC(C)=O [PMA, phorbol myristate acetate]	–	approximately 70 pg/100,000 cells	approximately 3 pg/100,000 cells	approximately 50 pg/100,000 cells	approximately 125 pg/100,000 cells	approximately 50 pg/100,000 cells
